Laboratory results: patent publication US20110230659A1, “CYCLOBUTYL PURINE DERIVATIVE, ANGIOGENESIS PROMOTING AGENT, LUMEN FORMATION PROMOTING AGENT, NEUROCYTE GROWTH PROMOTING AGENT, AND DRUG” (NATIONAL UNIVERSITY CORPORATION KAGAWA UNIVERSITY, priority 2008, published 2011)

How the values were obtained:
[1] = tested on: Human umbilical vein endothelial cells (HUVEC); assay: Measurement of cell migration (CytoSelect 24-well Cell Migration Assay); type: cell-based
Procedure: Measurement of cell migration was carried out in the following manner using CytoSelect 24-well Cell Migration Assay (CBA-100, Cell Biolabs) kits. First, sample solutions were prepared by dissolving 2-Cl—C.OXT-A in physiological saline so as to achieve predetermined concentrations (0.1, 0.5, 1 mmol/l). Then, the sample solutions containing 2-Cl—C.OXT-A at the predetermined concentrations respectively were added to HuMedia-EB2 media (Kurabo) to which 2 v/v % inactivated fetal bovine serum (FBS) had been added so that their concentrations became 10 v/v %. Thus, cell migration media were prepared. The final concentrations of 2-Cl—C.OXT-A in the cell migration media were 10, 50, and 100 μmol/l.
Human umbilical vein endothelial cells (HUVEC) were suspended in a HuMedia-EB2 medium (Kurabo) to which 2 v/v % inactivated fetal bovine serum (FBS) had been added at a density of 0.5×10^6 cells/ml. Thus, a cell suspension was prepared. 300 μl of the cell suspension was added to an upper compartment (i.e., in an insert) of a polycarbonate membrane plate provided in the kit, and 500 μl of the cell migration medium was added to a lower compartment (i.e., in a well) of the plate. Then, the cells were cultured at 37° C. for 24 hours. After the completion of the culture, the membrane on the inner bottom face of the insert was wiped out with a cotton swab to remove the cells on the membrane. Then, cells having migrated to the rear face of the membrane (the membrane on the outer bottom face of the insert) were stained using a staining solution provided in the kit, and then photographed from below the insert. After the photographing, the dye was extracted with an extracting solution provided in the kit, and the absorbance at 560 nm was measured using a microplate reader. As a control, a HuMedia-EB2 medium (Kurabo) to which 2 v/v % inactivated fetal bovine serum (FBS) had been added was used instead of the cell migration medium to carry out the culture, and the cells were stained and the absorbance was measured in the same manner as in the above. Then, using the above equation (I), the relative absorbance in the culture using each of the cell migration media containing 2-Cl—C.OXT-A at the predetermined concentrations was calculated.

[2] = tested on: rat adrenal medulla-derived cell line PC12; assay: Differentiation of PC12 cells, morphological change (micrographs); type: cell-based; conditions: 2-Cl—C.OXT-A at 50 μmol/l and 100 μmol/l; sixth day of culture
Procedure: In the present example, using rat adrenal medulla-derived cell line PC12, which is neurocyte model cells, obtained from the RIKEN BioResource Center, the effect of 2-Cl—C.OXT-A of Example 1 on the differentiation of PC12 cells was examined.
Three samples were prepared by adding additives shown in Table 5 below to PBS so as to achieve predetermined concentrations. Also, an evaluation medium was prepared by adding each sample or PBS to DMEM (no serum) so that its concentration became 10 v/v %. Furthermore, as a control medium, a medium containing only DMEM (no serum) was prepared. […] On the sixth day of the culture, the cells were photographed under a microscope, and the AChE activity was measured according to the Ellman's method (Ellman, G. L., et al., Biochem. Pharmacol., 7, pp. 88-95, (1961)). Specifically, the AChE activity was measured in the following manner. […] The sample solution, 75 μl of 10 mmol/l DTNB, and 3.0 ml of 0.1 mol/l phosphate buffer solution (pH 8.0) were added to a […] for absorbance measurement, and finally, 50 μl of 100 mmol/l acetylthiocholine was added to cause a reaction. The absorbance of the reaction solution at 412 nm was measured for 5 minutes from immediately after the addition of the ace tylthiocholine. From the thus-measured absorbances, the amount of increase in absorbance (C) per minute was determined. […]

Nc1nc(Cl)nc2c1ncn2C1CC(CO)C1CO (stereo not drawn) [2-Cl—C.OXT-A, 6-amino-2-chloro-9-[trans-trans-2,3-bis(hydroxymethyl)cyclobutyl]purine]
stained area (cell migration photographs) ([1]; final concentration 10 μmol/l to 100 μmol/l, 24 hours, versus control): larger than that in the control
relative absorbance (cell migration) ([1]; final concentration 50 μmol/l): 2.1
cell migration promoting-activity compared with VEGF ([1]; final concentration 50 μmol/l, VEGF 10 ng/ml): higher than that in Comparative Example 7
relative absorbance (cell migration) ([1]; final concentration 10 to 100 μmol/l, versus control): higher than that of the control
migration promoting-activity compared with physiological saline ([1]; final concentrations 50 and 100 μmol/l, p<0.02): significantly higher than that in Comparative Example 8
morphological change of PC12 cells (axon extension) [2]: cells from which linear axons extend were observed
